Like-named read-outs stand apart in the source and are kept apart here.
Tests used:
[1] = biological target: RGD-affinity purified GPIIb/IIIa (Homo sapiens, UniProt P05106+P08514); experiment: In vitro solid phase purified GPIIb/IIIa binding assay (biotinylated fibrinogen); conditions: fibrinogen binding to immobilized GPIIb/IIIa; read-out: IIb/IIIa IC50
Description: In Vitro Solid Phase Purified GP IIB/IIIA Binding Assay
The plate was covered and incubated overnight at 4° C. The GPIIb/IIIa solution was discarded and 150 μl of 5% BSA was added and incubated at RT for 1-3 h. The plate was washed extensively with modified Tyrodes buffer. Biotinylated fibrinogen (25 μl/well) at 2× final concentration was added to the wells that contain the test compounds (25 μl/well). The plate was covered and incubated at RT for 2-4 h. Twenty minutes prior to incubation completion, one drop of Reagent A (VectaStain ABC Horse Radish Peroxidase kit, Vector Laboratories, Inc.) and one drop Reagent B were added with mixing to 5 mL modified Tyrodes buffer mix and let stand. The ligand solution was discarded and the plate washed (5×200 μl/well) with modified Tyrodes buffer. Vecta Stain HRP-Biotin-Avidin reagent (50 μl/well, as prepared above) was added and incubated at RT for 15 min. The Vecta Stain solution was discarded and the wells washed (5×200 μl/well) with modified Tyrodes buffer. Developing buffer (10 mL of 50 mM citrate/phosphate buffer @ pH 5.3, 6 mg o-phenylenediamine, 6 μl 30% H2O2; 50 μl/well) was added and incubated at RT for 3-5 min, and then 2 NH2SO4 (50 μl/well) was added. The absorbance was read at 490 nm.

Human αvβ3 = biological target: T1, Human αvβ3 (Homo sapiens, UniProt P05106+P06756); experiment: In vitro solid phase purified αvβ3 binding assay (vitronectin/αvβ3)
T1 construct: purchased Chemicon International Inc., Temecula, Calif
Description: In Vitro Solid Phase Purified αvβ3 Binding Assay
(§1) The vitronectin/αvβ3 binding assay methods were derived from Mehta et al. (Biochem J. 1998, 330, 861). Human αvβ3 (Chemicon International Inc., Temecula, Calif.), at a concentration of 1 μg/ml dissolved in Tris buffer (20 mM Tris, 1 mM CaCl2, […], 10 μM MnCl2, 150 mM NaCl), was immobilized on Immulon 96 well plates (Dynex Technologies, Chantilly, Va.) overnight at 4° C. Plates were washed and treated with blocking buffer (3% BSA in Tris buffer) for 2 h at 37° C. Plates were then rinsed 2 times with Tris buffer containing 0.3% BSA and 0.2% Tween20 (polyoxyethylenesorbitan monolaurate). Five minutes prior to the addition of 5 nM vitronectin (Sigma, St. Louis, Mo.), synthesized compounds were added to wells in duplicate. Each plate included c-RGDfV as an internal control. Following a 3 hour incubation at 37° C., plates were washed 5 times in assay buffer. An anti-human vitronectin IgG rabbit polyclonal antibody (Calbiochem, San Diego, Calif.) was added (1:2000) and plates were incubated for 1 hour at room temperature. VectaStain ABC peroxidase kit reagents (Vector Laboratories, Burlingame, Calif.) employing a biotin labeled anti-rabbit IgG, were utilized for detection of bound antibody. Plates were read at 490 nm on a Molecular Devices (Sunnyvale, Calif.) microplate reader.

human purified αvβ5 = biological target: T2, human purified αvβ5 (Homo sapiens, UniProt P06756+P18084); experiment: In vitro solid phase purified αvβ5 binding assay (vitronectin/αvβ5); conditions: for IC50: vitronectin binding to immobilized αvβ5; for inhibition at 5 µM: read-out: αvβ5 Percent inhibition at 5 μM
T2 construct: purchased Chemicon International, Inc
Description: as §1
In Vitro Solid Phase Purified αvβ5 Binding Assay
The vitronectin/αvβ5 binding assay method was performed in the same manner as the vitronectin/αvβ3 binding assay (EXAMPLE 64) immobilizing with 1 μg/ml of human purified αvβ5 (Chemicon International, Inc.) on to Immulon 96 well plates (Dynex Technologies) instead of αvβ3. All other aspects of the assay including buffers, reagents, and incubation times remain unchanged.

[2] = vitronectin binding to immobilized αvβ3, read-out: αvβ3 IC50

T2 sequence (P06756 31-889 limits assumed): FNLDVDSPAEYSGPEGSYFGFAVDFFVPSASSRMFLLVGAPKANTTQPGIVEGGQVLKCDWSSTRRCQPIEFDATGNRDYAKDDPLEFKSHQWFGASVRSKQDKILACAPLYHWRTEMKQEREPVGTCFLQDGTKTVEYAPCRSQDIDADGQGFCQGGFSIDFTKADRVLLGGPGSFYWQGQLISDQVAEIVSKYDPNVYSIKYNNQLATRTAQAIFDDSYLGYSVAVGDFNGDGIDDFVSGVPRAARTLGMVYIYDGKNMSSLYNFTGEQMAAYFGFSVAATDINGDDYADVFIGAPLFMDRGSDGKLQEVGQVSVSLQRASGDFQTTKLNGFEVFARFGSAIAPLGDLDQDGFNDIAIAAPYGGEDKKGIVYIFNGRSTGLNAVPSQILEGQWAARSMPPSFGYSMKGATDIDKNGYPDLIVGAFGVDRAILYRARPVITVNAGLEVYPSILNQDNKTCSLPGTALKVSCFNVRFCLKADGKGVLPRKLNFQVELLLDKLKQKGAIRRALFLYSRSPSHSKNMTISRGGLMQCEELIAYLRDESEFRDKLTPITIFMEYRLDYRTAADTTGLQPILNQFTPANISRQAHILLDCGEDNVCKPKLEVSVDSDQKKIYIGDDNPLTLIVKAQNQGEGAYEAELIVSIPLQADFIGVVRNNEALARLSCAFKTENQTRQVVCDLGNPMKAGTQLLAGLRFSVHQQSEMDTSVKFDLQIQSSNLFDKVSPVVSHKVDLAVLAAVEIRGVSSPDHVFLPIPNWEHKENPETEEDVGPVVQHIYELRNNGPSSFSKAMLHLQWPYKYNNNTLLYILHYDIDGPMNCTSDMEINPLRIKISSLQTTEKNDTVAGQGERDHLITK
T2 sequence (P06756 891-1048 partner limits assumed): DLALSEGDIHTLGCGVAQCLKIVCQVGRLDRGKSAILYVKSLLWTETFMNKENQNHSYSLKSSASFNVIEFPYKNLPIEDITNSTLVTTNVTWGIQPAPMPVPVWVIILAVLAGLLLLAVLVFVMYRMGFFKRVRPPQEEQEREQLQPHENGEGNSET
T2 sequence (P18084 24-799): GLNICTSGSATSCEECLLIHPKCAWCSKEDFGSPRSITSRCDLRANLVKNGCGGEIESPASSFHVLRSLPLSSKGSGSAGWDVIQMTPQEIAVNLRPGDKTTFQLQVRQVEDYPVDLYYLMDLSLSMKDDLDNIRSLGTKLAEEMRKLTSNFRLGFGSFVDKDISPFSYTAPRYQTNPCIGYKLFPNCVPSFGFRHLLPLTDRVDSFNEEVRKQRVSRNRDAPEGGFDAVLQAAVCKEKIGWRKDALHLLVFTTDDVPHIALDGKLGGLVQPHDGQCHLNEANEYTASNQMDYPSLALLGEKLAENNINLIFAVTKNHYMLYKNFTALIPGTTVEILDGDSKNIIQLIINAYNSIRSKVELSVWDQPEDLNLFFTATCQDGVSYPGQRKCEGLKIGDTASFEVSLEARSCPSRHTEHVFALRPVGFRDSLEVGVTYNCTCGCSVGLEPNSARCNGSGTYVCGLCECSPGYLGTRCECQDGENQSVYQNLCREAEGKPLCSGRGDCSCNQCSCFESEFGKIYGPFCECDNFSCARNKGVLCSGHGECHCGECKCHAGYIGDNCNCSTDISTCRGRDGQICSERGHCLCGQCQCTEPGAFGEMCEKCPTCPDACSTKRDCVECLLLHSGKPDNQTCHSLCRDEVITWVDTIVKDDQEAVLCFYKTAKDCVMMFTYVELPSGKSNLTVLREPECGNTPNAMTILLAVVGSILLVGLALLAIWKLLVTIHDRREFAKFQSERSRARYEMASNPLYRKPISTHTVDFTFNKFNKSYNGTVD
T1 sequence (P06756 31-889 limits assumed): as the sequence (P06756 31-889 limits assumed) above
T1 sequence (P06756 891-1048 partner limits assumed): as the sequence (P06756 891-1048 partner limits assumed) above
T1 sequence (P05106 27-788): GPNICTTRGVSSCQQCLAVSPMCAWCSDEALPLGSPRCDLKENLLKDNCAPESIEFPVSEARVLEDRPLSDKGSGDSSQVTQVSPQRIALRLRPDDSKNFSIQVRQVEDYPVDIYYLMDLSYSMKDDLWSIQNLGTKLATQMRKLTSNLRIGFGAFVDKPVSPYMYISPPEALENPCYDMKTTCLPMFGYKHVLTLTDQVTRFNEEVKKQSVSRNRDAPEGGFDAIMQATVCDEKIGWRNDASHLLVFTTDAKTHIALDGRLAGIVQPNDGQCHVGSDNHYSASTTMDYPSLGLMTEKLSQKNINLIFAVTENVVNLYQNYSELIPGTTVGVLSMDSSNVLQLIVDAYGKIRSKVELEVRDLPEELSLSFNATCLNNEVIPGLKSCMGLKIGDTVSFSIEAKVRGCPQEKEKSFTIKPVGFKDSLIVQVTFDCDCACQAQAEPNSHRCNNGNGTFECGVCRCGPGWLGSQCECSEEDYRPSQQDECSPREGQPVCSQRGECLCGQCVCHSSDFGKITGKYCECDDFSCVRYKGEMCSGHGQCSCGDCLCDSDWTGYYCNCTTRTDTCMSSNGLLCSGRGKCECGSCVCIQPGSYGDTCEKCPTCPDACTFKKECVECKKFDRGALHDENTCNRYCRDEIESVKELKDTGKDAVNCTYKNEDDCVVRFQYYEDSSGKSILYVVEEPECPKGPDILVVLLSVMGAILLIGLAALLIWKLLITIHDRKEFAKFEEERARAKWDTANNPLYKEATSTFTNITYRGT
Sequence of RGD-affinity purified GPIIb/IIIa (P08514 32-887 limits assumed): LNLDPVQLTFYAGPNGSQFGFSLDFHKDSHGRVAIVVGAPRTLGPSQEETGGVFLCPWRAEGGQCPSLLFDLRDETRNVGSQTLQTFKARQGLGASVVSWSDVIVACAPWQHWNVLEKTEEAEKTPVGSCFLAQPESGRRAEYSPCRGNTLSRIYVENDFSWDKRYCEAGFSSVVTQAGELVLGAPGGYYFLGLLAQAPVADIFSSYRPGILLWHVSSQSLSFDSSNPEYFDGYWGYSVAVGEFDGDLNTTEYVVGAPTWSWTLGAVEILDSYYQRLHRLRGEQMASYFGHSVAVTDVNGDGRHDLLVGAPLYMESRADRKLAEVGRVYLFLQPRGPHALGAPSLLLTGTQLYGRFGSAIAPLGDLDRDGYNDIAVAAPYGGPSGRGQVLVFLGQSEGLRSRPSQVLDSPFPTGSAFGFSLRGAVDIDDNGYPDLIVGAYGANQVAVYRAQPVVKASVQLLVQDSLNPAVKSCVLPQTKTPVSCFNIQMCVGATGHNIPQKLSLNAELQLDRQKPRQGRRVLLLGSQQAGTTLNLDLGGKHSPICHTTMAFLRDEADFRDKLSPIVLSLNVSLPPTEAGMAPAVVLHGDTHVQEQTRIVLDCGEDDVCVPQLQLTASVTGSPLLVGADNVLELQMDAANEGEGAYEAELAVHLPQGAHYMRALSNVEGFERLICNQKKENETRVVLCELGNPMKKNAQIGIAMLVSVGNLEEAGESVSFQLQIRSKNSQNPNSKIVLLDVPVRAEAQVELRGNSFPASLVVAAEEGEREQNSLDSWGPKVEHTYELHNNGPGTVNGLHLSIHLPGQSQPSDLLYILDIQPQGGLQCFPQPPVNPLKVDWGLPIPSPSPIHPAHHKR
Sequence of RGD-affinity purified GPIIb/IIIa (P08514 891-1039 partner limits assumed): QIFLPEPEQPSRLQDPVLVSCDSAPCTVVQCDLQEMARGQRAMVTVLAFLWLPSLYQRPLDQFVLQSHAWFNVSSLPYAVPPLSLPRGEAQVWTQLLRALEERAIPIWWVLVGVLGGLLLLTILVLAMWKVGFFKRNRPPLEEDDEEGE
Sequence of RGD-affinity purified GPIIb/IIIa (P05106 27-788): as the sequence (P05106 27-788) above

Compound	IC50 [1] [nM]	IC50 (Human αvβ3; [2]) [nM]	IC50 (human purified αvβ5) [nM]	inhibition at 5 µM (human purified αvβ5) [%]	melting point [°C]	IC50 (Human αvβ3) [nM]
CC(CNC1=NCCN1)C(=O)N1CCC(C(=O)N[C@@H](CC(=O)O)c2cccnc2)CC1 (stereo partly drawn) [Compound 52]	2700	250	760			
COc1ccc(C(CC(=O)O)NC(=O)C2CCN(C(=O)CCCNC3=NCCN3)CC2)cc1OC (stereo not drawn) [Compound 34]	1500	29	> 5000			
O=C(O)C[C@H](NC(=O)C1CCN(C(=O)CCCNC2=NCCN2)CC1)c1cnc2ccccc2c1 [Compound 1, β-[[[1-[4-[(4,5-dihydro-1H-imidazol-2-yl)amino]-1-oxobutyl]-4-piperidinyl]carbonyl]amino]-, (β^3S)-3-quinolinepropanoic acid]	30		25			3.7
CC(CNC1=NCCN1)C(=O)N1CCC(C(=O)NC[C@H](NC(=O)OCc2ccccc2)C(=O)O)CC1 (stereo partly drawn) [Compound 16, 3-[[[1-[3-[(4,5-dihydro-1H-imidazol-2-yl)amino]-2-methyl-1-oxopropyl]-4-piperidinyl]carbonyl]amino]-N-[(phenylmethoxy)carbonyl]-L-alanine]	18	19	38			
CCN(CC)C(=O)COC(=O)CC(NC(=O)C1CCN(C(=O)CCCNC2=NCCN2C(=O)OC(C)(C)C)CC1)c1cnc2ccccc2c1 (stereo not drawn) [Compound 45]	14000	3700		40		
N=C(N)NOCCC(=O)N1CCC(C(=O)NC[C@H](NC(=O)OCc2ccccc2)C(=O)O)CC1 [Compound 58]	260	40	71			
O=C(O)C[C@H](NC(=O)C1CCN(C(=O)CCCNc2ccccn2)CC1)c1cnc2ccccc2c1 [Compound 6, β-[[[1-[1-oxo-4-(2-pyridinylamino)butyl]-4-piperidinyl]carbonyl]amino]-, (β^3S)-3-quinolinepropanoic acid]	460	4			87 to 90	
O=C(O)CC(NC(=O)C1CCN(C(=O)CCCNC2=NCCN2)CC1)c1cccc(F)c1 (stereo not drawn) [Compound 32]	3600	120				
O=C(O)CC(NC(=O)C1CCN(C(=O)CCCNC2=NCCN2)CC1)c1cccnc1 (stereo not drawn) [Compound 25]	2900	32				
O=C(O)C[C@H](NC(=O)C1CCN(C(=O)CCCNc2ccccn2)CC1)c1cccnc1 [Compound 30]	56000	140				
Cc1cccnc1NCCCC(=O)N1CCC(C(=O)NC[C@H](NC(=O)OCc2ccccc2)C(=O)O)CC1 [Compound 41]	110	> 300				
C=CC(CCC(=O)N1CCC(C(=O)NC[C@H](NC(=O)OCc2ccccc2)C(=O)O)CC1)NC1=NCCN1 (stereo partly drawn) [Compound 49]	12	39	210			
O=C(N[C@@H](CNC(=O)C1CCN(C(=O)CCONC2=NCCN2)CC1)C(=O)O)OCc1ccccc1 [Compound 60]	190	27	86			
COc1cc(OC)cc(C(CC(=O)O)NC(=O)C2CCN(C(=O)CCCNC3=NCCN3)CC2)c1 (stereo not drawn) [Compound 24]	2200	64				
CC(CCNC1=NCCN1)C(=O)N1CCC(C(=O)N[C@@H](CC(=O)O)Cc2ccccc2)CC1 (stereo partly drawn) [Compound 48]	1100	510				
CC(CCNC1=NCCN1)C(=O)N1CCC(C(=O)NC[C@H](NC(=O)OCc2ccccc2)C(=O)O)CC1 (stereo partly drawn) [Compound 47, 3-[[[1-[4-[(4,5-dihydro-1H-imidazol-2-yl)amino]-2-methyl-1-oxobutyl]-4-piperidinyl]carbonyl]amino]-N-[(phenylmethoxy)carbonyl]-L-alanine]	28	4				
O=C(O)CC(NC(=O)C1CCN(C(=O)OCCNC2=NCCN2)CC1)c1ccc2c(c1)OCO2 (stereo not drawn) [Compound 29]	210	34				

Now from value to compound, other results behind:

IC50 [1] [nM]	IC50 (Human αvβ3; [2]) [nM]	IC50 (human purified αvβ5) [nM]	inhibition at 5 µM (human purified αvβ5) [%]	melting point [°C]	Compound	IC50 (Human αvβ3) [nM]
360	28	2900			COC(=O)C[C@H](NC(=O)C1CCN(C(=O)CCCNC2=NCCN2)CC1)c1cnc2ccccc2c1 [Compound 44]	
1600	150	> 5000			CCN(CC)C(=O)COC(=O)CC(NC(=O)C1CCN(C(=O)CCCNC2=NCCN2)CC1)c1cnc2ccccc2c1 (stereo not drawn) [Compound 46]	
7.4	3900		38		C=CC(N)CCC(=O)N1CCC(C(=O)NC[C@H](NC(=O)OCc2ccccc2)C(=O)O)CC1 (stereo partly drawn) [Compound 50, 3-[[[1-(4-amino-1-oxo-5-hexenyl)-4-piperidinyl]carbonyl]amino]-N-[(phenylmethoxy)carbonyl]-L-alanine]	
300	30000				O=C(O)CC(NC(=O)C1CCN(C(=O)C2CCNCC2)CC1)c1cnc2ccccc2c1 (stereo not drawn) [Compound 9]	
13000	> 500				O=C(O)CC(NC(=O)C1CCN(C(=O)CCCNC2=NCCN2)CC1)c1cccc(C(F)(F)F)c1 (stereo not drawn) [Compound 27]	
290	270	2000			COC(=O)[C@H](CNC(=O)C1CCN(C(=O)C(C)CNC2=NCCN2)CC1)NC(=O)OCc1ccccc1 (stereo partly drawn) [Compound 51]	
8.9	5.8	21			O=C(N[C@@H](CNC(=O)C1CCN(C(=O)CCCNC2=NCCN2)CC1)C(=O)O)OCc1ccccc1 [Compound 2, 3-[[[1-[4-[(4,5-dihydro-1H-imidazol-2-yl)amino]-1-oxobutyl]-4-piperidinyl]carbonyl]amino]-N-[(phenylmethoxy)carbonyl]-L-alanine]	
7300	> 500				O=C(O)CC(NC(=O)C1CCN(C(=O)CCCNC2=NCCN2)CC1)c1ccc2c(c1)CCO2 (stereo not drawn) [Compound 23]	
3300	> 300				O=C(O)CC(NC(=O)C1CCN(C(=O)CCCNC2=NCCN2)CC1)c1cc(F)cc(F)c1 (stereo not drawn) [Compound 38]	

Source: patent US7718673B2, “Isonipecotamides for the treatment of integrin-mediated disorders” (Ortho-McNeil Pharmaceutical, Inc., priority 1999, dated 2010)
